These are literature values, as cited in patent US8911781B2, “Process of manufacture of novel drug delivery system: multilayer tablet composition of thiazolidinedione and biguanides” (Inventia Healthcare Private Limited, priority 2002, dated 2014).

Where a name gives a salt, the structure may show the parent alone.

The conditions of series [1]: after ingestion.
For series [2] the following is noted: at steady state concentrations; parent drug.

For `CN(C)C(=N)N=C(N)N` [Metformin HCl], the “time to complete gastro-intestinal absorption” value in series [1] was ≤ 6 h.

With `CCc1ccc(CCOc2ccc(CC3SC(=O)NC3=O)cc2)nc1` (centres unmarked) [Pioglitazone HCl], the “plasma elimination half-life (t½)” value in series [2] is 3.3 to 4.9 h.
